{
  "source": "patent US9243247B2",
  "about": "“Composition for promoting apoptosis or inhibiting cell growth, comprising epstein-barr virus microrna” (Catholic University Industry Academic Cooperation Foundation, priority 2011, dated 2016)",
  "format_in_all_cases": "cell-based",
  "key": {"AGS cell strain [1]": {"test_system": "AGS cell strain", "assay": "Cell growth test (CCK-8 assay) after transfection of BART miRNA mimics", "details": "for Relative Cell Growth: relative to scrambled control (=1)", "in_short": "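EBV-negative AGS gastric cells in RPMI1640 with 10% FBS, seeded 1×10^3 cells/well and transfected with synthetic mature BART miRNA mimics (10 nM; dose series 1, 3, 10, 30 nM) via G-fectin. Growth read by CCK-8 after 72 h (or over time), 2 h at 37 °C, absorbance measured.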"}, "AGS cell strain [2]": {"test_system": "AGS cell strain", "assay": "Measurement of apoptosis (Annexin V staining, FACS)", "details": "for Relative Apoptotic cell: mimic 10 nM, 10 uM 5-FU 24 h after transfection, then 48 hours, Annexin V, relative to scrambled control (=1), n=9", "in_short": "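EBV-negative AGS cells (2×10^5/well) were transfected with 10 nM synthetic miRNA. Twenty-four hours later they received 10 uM 5-FU for 48 h at 37 °C. The apoptotic cell ratio was measured by PE Annexin V staining and FACS.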"}, "TAX1BP1 mRNA": {"test_system": "TAX1BP1 mRNA", "assay": "TAX1BP1 mRNA level by QRT-PCR", "details": "AGS; after transfection; listed as miR-BART15-3p", "experimental": "miR-BART15-3p was transfected to AGS by using lipofectamine-2000. Forty eight hours after the transfection, the cells were harvested and a QRT-PCR and a Western blotting were performed (FIGS. 12A and 12B). The BIRC6 mRNA level was not changed in the AGS to which miR-BART15-3p was transfected, while the protein level was decreased.\nDifferent from BIRC6, the mRNA level of TAX1BP1 was decreased in the AGS to which miR-BART15-3p was transfected (FIG. 12E)."}, "AGS cell strain [3]": {"test_system": "AGS cell strain", "assay": "Effect on cell cycle (propidium iodide staining, FACS, sub G1)", "details": "for Relative Sub G1: mimic 10 nM, 10 uM 5-FU 24 h after transfection, then 48 hours, relative to scrambled control (=1)", "in_short": "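AGS gastric cells (EBV-negative), 2×10^5 per well, were transfected with synthetic miRNA (10 nM). DNA was stained with propidium iodide, and the cell-cycle-altered fraction was measured by FACS.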"}, "3′UTR of TAX1BP1": {"test_system": "3′UTR of TAX1BP1", "assay": "Dual luciferase reporter assay (psiCHECK) in HEK293T, TAX1BP1 3'UTR", "details": "psiCHECK with TAX1BP1 3′UTR, 48 hours after transfection", "from_the_text": "For an miRNA target test, to psiCHECK, which is a luciferase vector (FIG. 9) specially designed for an miRNA target test including a firefly gene and a renilla gene in the same vector, a 3′UTR of the five genes shown in Table 5, which might be targeted by miR-BART15-3p, was individually cloned to prepare a vector for a target test for each of the genes.\nHEK293T was divided into a 96-well plate such that 5×10^3 cells were allocated to each well, and miR-BART15-3p and a vector for a target test were transfected by using lipofectamine2000. Forty eight hours after the transfection, a dual luciferase reporter assay (Virology. 412(2), 392-400 (2011)) was performed to normalize the results with reference to firefly luciferase and observe a variation of the renilla luciferase gene expression. […] The renilla value was not decreased by […] which was formed by mutating a seed part of miR-BART15-3p (FIG. 10)."}, "[4]": {"details": "AGS, mimic 10 nM in combination with 10 uM 5-FU"}},
  "note": "Entries after “also recorded” stand apart in the source; their conditions may differ.",
  "data": [
    {"substance": "BART15-3p: EBV BART miRNA mimic, double stranded RNA; sense SEQ NO: 15, antisense SEQ NO: 16 (sense GUCAGUGGUUUUGUUUCCUUGA; antisense UCAAGGAAACAAAACCACUGAC; chemistry not given here)", "values": [
      {"measurement": "cell growth lower than that of a scrambled control", "setting": "AGS cell strain [1]; 3 nM, 72 hours after transfection", "result": 50, "unit": "%"},
      {"measurement": "cell growth", "setting": "AGS cell strain [1]; 10 nM, 72 hours after transfection", "result": "almost no cell growth"},
      {"measurement": "cell growth", "setting": "AGS cell strain [1]; 30 nM, 72 hours after transfection", "result": "almost no cell growth"},
      {"measurement": "Relative Cell Growth", "setting": "AGS cell strain [1]; mimic 10 nM, 72 hours after transfection, n=9", "result": 0.5676},
      {"measurement": "Relative Cell Growth", "setting": "AGS cell strain [1]; mimic 10 nM, 72 hours after transfection, n=9, listed as miR-BART15-3p", "result": "inhibited cell growth"},
      {"measurement": "cell growth over time", "setting": "AGS cell strain [1]; mimic 10 nM, depending on treatment time, listed as miR-BART15-3p", "result": "greatly decreased cell growth; also recorded: inhibited cell growth almost entirely"},
      {"measurement": "ratio of early apoptotic cell", "setting": "AGS cell strain [2]; [4]", "result": "increased"},
      {"measurement": "ratio of late apoptotic cell", "setting": "AGS cell strain [2]; [4]", "result": "increased"},
      {"measurement": "degree of apoptosis, combination with 5-FU versus sum of single treatments", "setting": "AGS cell strain [2]; AGS, mimic 10 nM plus 10 uM 5-FU", "result": "synergetic effect"},
      {"measurement": "ratio of early apoptotic cell", "setting": "AGS cell strain [2]; AGS, mimic 10 nM treated alone", "result": "increased"},
      {"measurement": "ratio of late apoptotic cell", "setting": "AGS cell strain [2]; AGS, mimic 10 nM treated alone", "result": "increased"},
      {"measurement": "Relative Apoptotic cell", "setting": "AGS cell strain [2]; AGS", "result": 1.665},
      {"measurement": "Relative Apoptotic cell", "setting": "AGS cell strain [2]; AGS, listed as 15-3p", "result": "significantly higher"},
      {"measurement": "effect on cell growth and apoptosis (summary statement)", "setting": "AGS cell strain [2]; mimics transfected to AGS, tumor cell strain not infected with EBV", "result": "inhibit cell growth and promote apoptosis"},
      {"measurement": "mRNA level of TAX1BP1", "setting": "TAX1BP1 mRNA", "result": "decrease"},
      {"measurement": "ratio of sub G1 after the 5-FU treatment", "setting": "AGS cell strain [3]; mimic 10 nM plus 10 uM 5-FU (Example 6)", "result": "greatly increased"},
      {"measurement": "percentage of sub G1", "setting": "AGS cell strain [3]; mimic 10 nM transfected alone, versus scrambled control", "result": "significantly higher"},
      {"measurement": "Relative Sub G1", "setting": "AGS cell strain [3]", "result": 2.508},
      {"measurement": "Relative Sub G1", "setting": "AGS cell strain [3]; listed as 15-3p", "result": "increased"},
      {"measurement": "renilla value (renilla luciferase, normalized to firefly)", "setting": "3′UTR of TAX1BP1", "result": "decrease"}
    ]}
  ]
}
